Assay results taken from US6517836B1, “Nitrophenylaziridine compounds and their use as prodrugs” (Auckland Uniservices Limited, priority 1998, dated 2003).

What was measured:
[1] = system: EMT6 mouse mammary carcinoma line; assay: Cytotoxicity, 18 h drug exposure, EMT6 NR− line; type: cell-based; conditions: Mus musculus; EMT6 cells, 18 h drug exposure; read-out: EMT6 NR− IC50
Text: (§1) The Chinese hamster fibroblast NR− line (T78-1) is a V79/4 Chinese hamster fibroblast transfected with an empty shuttle vector, while the NR+ line (T79-A3) is the corresponding NR transfectant. The human colon carcinoma NR− line (WIDR) is wild-type, while the NR+ line (WC14 10) is the corresponding NR transfectant. The human ovarian carcinoma NR− line (SKOV3) is wild-type, while the NR+ line (SC3.2) is the corresponding NR transfectant. EMT6 is a mouse mammary carcinoma line, and EN2A is the NR-transformed counterpart.

[2] = system: Chinese hamster fibroblast NR− line (T78-1), V79/4 transfected with an empty shuttle vector; assay: Cytotoxicity, 18 h drug exposure, V79 NR− line (T78-1); type: cell-based; conditions: Cricetulus griseus; T78-1 cells, 18 h drug exposure; read-out: V-79 NR− IC50
Text: as §1

[3] = system: human colon carcinoma NR+ line (WC14 10), NR transfectant; assay: Cytotoxicity, 18 h drug exposure, WiDr NR+ line (WC14 10); type: cell-based; conditions: Homo sapiens, WiDr; WC14 10 cells, 18 h drug exposure; read-out: WiDr NR+ IC50
Text: as §1

[4] = system: EN2A, NR-transformed counterpart of EMT6; assay: Cytotoxicity, 18 h drug exposure, EMT6 NR+ line (EN2A); type: cell-based, mouse; conditions: Mus musculus, EMT6; EN2A cells, 18 h drug exposure; read-out: EMT6 NR+ IC50
Text: as §1

[5] = system: human ovarian carcinoma NR+ line (SC3.2), NR transfectant; assay: Cytotoxicity, 18 h drug exposure, SKOV NR+ line (SC3.2); type: cell-based; conditions: Homo sapiens; SC3.2 cells, 18 h drug exposure; read-out: SKOV NR+ IC50
Text: as §1

[6] = system: Chinese hamster fibroblast NR+ line (T79-A3), NR transfectant; assay: Cytotoxicity, 18 h drug exposure, V79 NR+ line (T79-A3); type: cell-based; conditions: Cricetulus griseus, Fibroblast; T79-A3 cells, 18 h drug exposure; read-out: V-79 NR+ IC50
Text: as §1

[7] = system: human ovarian carcinoma NR− line (SKOV3), wild-type; assay: Cytotoxicity, 18 h drug exposure, SKOV3 NR− line; type: cell-based; conditions: Homo sapiens, SK-OV-3; SKOV3 cells, 18 h drug exposure; read-out: SKOV NR− IC50
Text: as §1

[8] = system: human colon carcinoma NR− line (WIDR), wild-type; assay: Cytotoxicity, 18 h drug exposure, WiDr NR− line; type: cell-based; conditions: Homo sapiens; WIDR cells, 18 h drug exposure; read-out: WiDr NR− IC50
Text: as §1

NC(=O)c1cc([N+](=O)[O-])c(N2CC2)c([N+](=O)[O-])c1 [Compound 19, 4-(Aziridin-1-yl)-3,5-dinitrobenzamide]
melting point: 228 to 231 °C | IC50 [1]: > 20 µM | IC50 [2]: > 20 µM | IC50 [3]: > 20 µM | IC50 [4]: > 20 µM | IC50 [5]: > 20 µM | IC50 [6]: > 20 µM | IC50 [7]: > 20 µM | IC50 [8]: > 20 µM
